According to publication PMC7177633, “Effective Cellular Transport of Ortho-Halogenated Sulfonamide Derivatives of Metformin Is Related to Improved Antiproliferative Activity and Apoptosis Induction in MCF-7 Cells” (International Journal of Molecular Sciences, 2020):
Like-named read-outs stand apart in the source and are kept apart here.

Experiments:
MCF-7 cells [1] = experiment: Uptake in the presence of OCT and MATE inhibitors, MCF-7 cells; format: in vitro ADME, human; settings: for interactions with OCT, PMAT and MATE1 transporters, MCF-7: summary from uptake with inhibitors
Method: (§1) The uptake of sulfonamide derivatives of metformin (1–9) in MCF-7 and MDA-MB-231 cells was studied also in the presence of disopyramide, cimetidine (OCT1 and 3 inhibitors), lopinavir (OCT and PMAT inhibitor) and methenamine (MATE and OCT2 inhibitors). The cells were incubated (37 °C, 10 min) with compounds 1–9 at concentrations of 400 and 800 μmol/L and inhibitors (disopyramide, cimetidine, lopinavir or methenamine) in 250 μL of prewarmed HBSS buffer. The protocol of determination of the compound concentration was as described above.

MDA-MB-231 cells [2] = experiment: Cell viability WST-1 assay, MDA-MB-231; format: cell-based; settings: Homo sapiens, WST-1, 24 h
Method: (§2) The viability of MCF-7 and MDA-MB-231 cells was determined using a colorimetric WST-1 assay (Takara, Takara Bio Europe, Saint-Germain-en-Laye, France). Both cell lines were seeded at a density of 1 × 10^4 per well on 96-well plates and were cultured for 24 h to obtain 70% confluence. The following day, the cells were treated with various concentrations of compounds 1–9 diluted in the cell culture medium ([…]). The cells were incubated with tested compounds or pure medium (control) for 24 h (37 °C, 5% CO2). Afterwards, the cells were washed with 100 μL of culture medium, and then, the reagent dissolved in the medium was added (100 μL). The plates were incubated at the standard condition for 1.5 h, and the absorbance was read at 450 nm using a microplate reader (iMARK, Bio-Rad, Bio-Rad Laboratories Inc., Hercules, CA, USA). […] The results of samples treated with the test compounds were expressed as a percentage of the control samples. The data were presented as mean ± standard deviation (SD), n = 8. IC50 values (the concentration of the tested compound that inhibited cell growth by 50%) were calculated using a concentration-response curve (GraphPad Prism, Software, San Diego, CA, USA).
(§3) The concentrations contributing to the 50% of cell growth inhibition (IC50) were calculated using nonlinear regression analysis (fitting the curve to log (concentration) vs. cellular response).

MDA-MB-231 cells [3] = experiment: Uptake in the presence of OCT and MATE inhibitors, MDA-MB-231 cells; format: in vitro ADME, human; settings: for interactions with OCT, PMAT and MATE1 transporters, MDA-MB-231: summary from uptake with inhibitors
Method: as §1

MCF-7 cells [4] = experiment: Cell viability WST-1 assay, MCF-7; format: cell-based; settings: Homo sapiens, MCF7; WST-1, 24 h, mean ± SD (n = 6–8); read-out: IC50 inhibition of MCF-7 cells' viability
Method: as §2, §3

OCTs [5] = experiment: Inhibition of [14C]choline uptake in MDA-MB-231 cells (competitive inhibition assay); format: cell-based, human; settings: mean ± SD (n = 3)
Method: (§4) The following day, after removal of the culture medium, the cells were carefully washed with prewarmed HBSS (Hanks’ balanced salt solution) containing 125 mM NaCl, 4.8 mM KCl, 1.2 mM MgSO4, 1.2 mM KH2PO4, 1.3 mM CaCl2, 5.6 mM glucose and 25 mM HEPES (pH 7.4). […] Then, the cells were washed three times with ice-cold HBSS (500 μL) and were lysed with 250 μL of 0.1-M NaOH in the ice bath, and the lysate was mixed with 1.0 mL of an emulsifier safe cocktail (PerkinElmer, Waltham, MA, USA). The radioactivity was measured by liquid scintillation counting (MicroBeta^2 counter, PerkinElmer, Waltham, MA, USA). The studies were carried out with the use of at least three replicates from the same cell passage.

MCF-7 cells [6] = experiment: Cellular uptake of metformin sulfonamides in MCF-7 cells (HPLC); format: in vitro ADME, human
Method: (§5) The uptake of metformin sulfonamides (1–9) in MCF-7 and MDA-MB-231 cells was studied by incubation of the cells with 10−3000 μmol/L of compounds in 250 μL of prewarmed HBSS buffer at 37 °C for 10 min. Subsequently, the cells were then washed three times with 500 μL of ice-cold HBSS and lysed with 250 μL of 0.1-M NaOH. The samples were collected, centrifuged (5 min, 1400 rpm) and the supernatants were analyzed by the HPLC method. The concentration of each compound in the cells was calculated on the basis of the standard curve prepared by spiking known amounts of every compound on the cell layers in 250 μL of 0.1-M NaOH.
(§6) The concentration of the studied sulfonamides (1–9) was assessed using the HPLC system, consisting of an Agilent 1100 binary pump (Agilent Technologies Inc., Wilmington, DE, USA), an 1100 micro-vacuum degasser, an HP 1050 autosampler and an HP 1050 variable wavelength detector (operated at 235 nm). The chromatographic separations of compounds 1–9 were conducted on an Agilent Zorbax SB-C18 analytical column (4.6 mm × 150 mm, 5 μm) using an isocratic elution of water containing 0.1% formic acid (pH ca. 3.0) and acetonitrile containing 0.1% formic acid with a changing ratio, depending on the compound. The analyses were conducted at room temperature (RT). The detailed procedure of chromatographic analysis was described in our previous paper. The studies were conducted in quadruplicates.
(§7) The protein concentrations in representative wells of each plate were assessed using a Bio-Rad protein assay according to the Bradford method (EnVision, PerkinElmer, Inc., Waltham, MA, USA).

MDA-MB-231 cells [7] = experiment: Cellular uptake of metformin sulfonamides in MDA-MB-231 cells (HPLC); format: in vitro ADME, human
Method: as §5, §6, §7

OCTs [8] = experiment: Inhibition of [14C]choline uptake in MCF-7 cells (competitive inhibition assay); format: cell-based, human; settings: mean ± SD (n = 3)
Method: as §4

[9] = compound and inhibitor 400 and 800 µmol/L, 10 min, 37 °C
[10] = Eadie-Hofstee analysis, transporter I
[11] = Eadie-Hofstee analysis, transporter I, read-out: Km, transporter I, MCF-7
[12] = Eadie-Hofstee analysis, transporter II
[13] = Eadie-Hofstee analysis, transporter I, read-out: Km, transporter I, MDA-MB-231
[14] = Eadie-Hofstee analysis, transporter II, read-out: Km, transporter II, MDA-MB-231
[15] = Michaelis-Menten curve, read-out: Km MDA-231 cells (Michaelis Menten curves)

Structure (SMILES)	interactions with OCT, PMAT and MATE1 transporters, MCF-7 (MCF-7 cells [1])	interactions with OCT, PMAT and MATE1 transporters, MDA-MB-231 (MDA-MB-231 cells [3])	IC50 (MCF-7 cells [4]) [µM]	IC50 (OCTs [5]) [µM]	Vmax, transporter I, MCF-7 (MCF-7 cells [6]; [10]) [nmol/min/mg]	Km (MCF-7 cells [6]; [11]) [mM]	Vmax, transporter I, MDA-MB-231 (MDA-MB-231 cells [7]; [10]) [nmol/min/mg]	Km (MDA-MB-231 cells [7]; [13]) [mM]	Vmax, transporter II, MDA-MB-231 (MDA-MB-231 cells [7]; [12]) [nmol/min/mg]	Km (MDA-MB-231 cells [7]; [14]) [mM]	Vmax MDA-231 cells (Michaelis Menten curves) (MDA-MB-231 cells [7]; Michaelis-Menten curve) [nmol/min/mg]	Km (MDA-MB-231 cells [7]; [15]) [mM]	IC50 (OCTs [8]) [µM]	also measured
CN(C)C(=N)N=C(N)NS(=O)(=O)c1cccc(Cl)c1 [Compound 2]	OCT1, OCT3, PMAT	OCT1, OCT3	533 ± 87.4	4449 ± 18.1	19.2 ± 2.31	4.01 ± 0.696	0.077 ± 0.008	2.4 ± 0.353	0.111 ± 0.016	5.47 ± 0.73	0.157 ± 0.129	6.75 ± 1.73	2923 ± 9.1	uptake in the presence of cimetidine, MCF-7 (MCF-7 cells [1]; [9]): inhibited; uptake in the presence of disopyramide, MCF-7 (MCF-7 cells [1]; [9]): profoundly elevated; uptake in the presence of lopinavir, MCF-7 (MCF-7 cells [1]; [9]): profoundly elevated; IC50 (MDA-MB-231 cells [2]; MDA-MB-231, mean ± SD (n = 6–8), read-out: IC50 inhibition of MDA-MB-231 cells' viability): 844 ± 135 µM; uptake in the presence of cimetidine, MDA-MB-231 (MDA-MB-231 cells [3]; [9]): no significant differences; uptake in the presence of disopyramide, MDA-MB-231 (MDA-MB-231 cells [3]; [9]): no significant differences; uptake in the presence of lopinavir, MDA-MB-231 (MDA-MB-231 cells [3]; [9]): no significant differences; uptake in the presence of methenamine, MDA-MB-231 (MDA-MB-231 cells [3]; [9]): no significant differences; uptake into MCF-7 cells (MCF-7 cells [6]; 800 μmol/L, 10 min incubation, 37 °C): 2.669 ± 0.040 nmol/min/mg protein; Vmax, transporter II, MCF-7 (MCF-7 cells [6]; [12]): 24.91 ± 5.44 nmol/min/mg; Km (MCF-7 cells [6]; Eadie-Hofstee analysis, transporter II, read-out: Km, transporter II, MCF-7): 7.47 ± 1.82 mM; Vmax MCF-7 (Michaelis Menten curves) (MCF-7 cells [6]; Michaelis-Menten curve): 34.4 ± 17.2 nmol/min/mg; Km (MCF-7 cells [6]; Michaelis-Menten curve, read-out: Km MCF-7 (Michaelis Menten curves)): 9.05 ± 1.52 mM; uptake in MCF-7 cells relative to metformin (MCF-7 cells [6]; fold higher than parent drug metformin, 800 μmol/L): approximately 25 fold
CN(C)C(=N)N=C(N)NS(=O)(=O)c1cccc(F)c1 [Compound 8]	OCT1	OCT1, OCT3	171 ± 13.6	2284 ± 14	0.830 ± 0.171	2.84 ± 0.778	0.049 ± 0.025	1.23 ± 1.31	0.045 ± 0.021	3.38 ± 2.13	0.126 ± 0.032	7.4 ± 0.51	7195 ± 5.3	viability at 3000 µM (MDA-MB-231 cells [2]; MDA-MB-231, 24 h, 3000 µmol/L, read-out: percentage of viability of MDA-MB-231 cells): ~60%; uptake into MCF-7 cells at higher concentrations (MCF-7 cells [6]; concentrations above 1600 μmol/L): 8–10 nmol/min/mg of protein; transport efficacy (Vmax/Km) in MCF-7 relative to MDA-MB-231 (MDA-MB-231 cells [7]; fold lower in MDA-MB-231 than in MCF-7): approximately 22 fold
